Data set [1] concerns H. Pylori. The settings on record: as a single agent; cited from earlier work.
The nature of data set [2]: Diabetic mouse wound healing model. The settings on record: 10 mcg/mL to 1,000 mcg/mL; compared to placebo treated wound. It counts as in vivo. The protocol:
Further, wound healing potential of the above bismuth compounds is evaluated using a diabetic mouse wound healing model (Matuszewska et al., Pharmaceutical Research 11(1):65-71 (1994), incorporated herein by reference).

For the next data set, the system named is Treponema denticola. Nature of the data set: In vitro MIC against halitosis bacteria. It counts as cell-based.
Another data set relates to Helicobacter pylori. Nature of the data set: In vitro MIC against halitosis bacteria. The format is cell-based.
Data set [3] is described as follows: Freeze-injured skin graft model. It counts as in vivo. The note with it: 10 to 1000 mcg/mL; compared to placebo.
For the next data set, the system named is rat mesentery culture. Nature of the data set: In vitro mesentery culture model, wound closure. The note with it: for concentrations of growth factors EGF and FGF: 10 mcg/mL to 1,000 mcg/mL in medium with 2% fetal calf serum; for wound closure rate: 10 mcg/mL to 1,000 mcg/mL, 24-hour, 48-hour and 72-hour, compared to the placebo. The format is cell-based. The text has this: This tissue culture model is useful for gaining insights into growth factor interactions and wound healing.

A further data set has as its system Campylobacter rectus. The data set can be described thus: In vitro MIC against halitosis bacteria. It counts as cell-based.
The conditions of data set [4]: of the 13 adverse reaction forms, 1978 to 1986; cited from earlier work.
For data set [5] the following is noted: four hour exposure; 0.5% in artificial saliva; mild agitation. From the text: Artificial saliva was used (Table 9). Table 9 THECOMPOSITION OF ARTIFICIAL SALIVA
Table 10 DENTURE MATERIALS

In data set [6] the test system is H. Pylori. The settings on record: against H. Pylori; cited from earlier work.

The text below walks through data of patent EP1683515A2, “Bismuth-containing compounds in topical dosage forms” (Josman Laboratories, Inc., priority 1995, dated 1997).

Usually MIC stands for the smallest concentration in the dilution series that meets the test's criterion for growth inhibition. Higher therefore signals weaker potency.

Some results are limits rather than exact numbers.

Turning to `Cc1ncc([N+](=O)[O-])n1CCO` [metronidazole], the “eradication rate for H. Pylori” value with H. Pylori [1] is 5%.
For the molecule Bismuth Ascorbyl Sulfate, the wound healing entry in data set [2] is listed as “heal faster”. For the same molecule, the MIC with Treponema denticola is given as 16 µg/mL; in the data set on Helicobacter pylori it was 8 µg/mL; with Campylobacter rectus, 256 µg/mL. The “wound healing in cryoinjured grafts” value in data set [3] was “stimulates wound healing in cryoinjured grafts in a dose-related fashion”. In addition, the “concentrations of growth factors EGF and FGF” value in the data set on rat mesentery culture is “Significantly higher”. Also, in the data set with rat mesentery culture, the wound closure rate result was “significantly faster wound closure rate and complete closure”.
In the case of Bismuth Sucrose Sulfate, the MIC with Treponema denticola is given as 32 µg/mL; with Helicobacter pylori it was 16 µg/mL; against Campylobacter rectus, above 256 µg/mL.
Take colloidal bismuth subcitrate [CBS]: the wound healing result in data set [2] is recorded as “heal faster”. Also, the MIC is reported as 32 µg/mL against Treponema denticola, 2 µg/mL against Helicobacter pylori and 256 µg/mL against Campylobacter rectus. In data set [4], the “adverse reactions ascribed to CBS” value is recorded as “Five”. Besides, in [3], the “wound healing in cryoinjured grafts” value is listed as “stimulates wound healing in cryoinjured grafts in a dose-related fashion”. Besides, the “staining, discoloration, or changes in texture of natural tooth and other denture materials” value in data set [5] was “did not cause any staining, discoloration, or changes in texture”. For the same molecule, the “concentrations of growth factors EGF and FGF” value with rat mesentery culture is reported as “Significantly higher”. In addition, the wound closure rate entry in the data set with rat mesentery culture is “significantly faster wound closure rate and complete closure”. Moreover, in the data set with H. Pylori [6], the MIC range was 4 to 32 µg/mL. Besides, in the data set on H. Pylori [6], the “minimum inhibitory concentration (MIC)” value is 8 µg/mL.
